Data from publication PMC4379176, “Unsaturation of Very-Long-Chain Ceramides Protects Plant from Hypoxia-Induced Damages by Modulating Ethylene Signaling in Arabidopsis” (PLoS Genetics, 2015).
Like-named read-outs stand apart in the source and are kept apart here. Each block holds one compound with its values, some of them ahead of it.

How the values were obtained:
[1] = target: T1, rCTR1 (Arabidopsis thaliana, UniProt Q05609); experiment: microscale thermophoresis; type: binding
T1 construct: gene CTR1; full-length CTR1 coding region, N-terminal GST fusion (pGEX-6P-1), E. coli BL21 (DE3); tag kept (detected by anti-GST)
T1 sequence (Q05609 1-821): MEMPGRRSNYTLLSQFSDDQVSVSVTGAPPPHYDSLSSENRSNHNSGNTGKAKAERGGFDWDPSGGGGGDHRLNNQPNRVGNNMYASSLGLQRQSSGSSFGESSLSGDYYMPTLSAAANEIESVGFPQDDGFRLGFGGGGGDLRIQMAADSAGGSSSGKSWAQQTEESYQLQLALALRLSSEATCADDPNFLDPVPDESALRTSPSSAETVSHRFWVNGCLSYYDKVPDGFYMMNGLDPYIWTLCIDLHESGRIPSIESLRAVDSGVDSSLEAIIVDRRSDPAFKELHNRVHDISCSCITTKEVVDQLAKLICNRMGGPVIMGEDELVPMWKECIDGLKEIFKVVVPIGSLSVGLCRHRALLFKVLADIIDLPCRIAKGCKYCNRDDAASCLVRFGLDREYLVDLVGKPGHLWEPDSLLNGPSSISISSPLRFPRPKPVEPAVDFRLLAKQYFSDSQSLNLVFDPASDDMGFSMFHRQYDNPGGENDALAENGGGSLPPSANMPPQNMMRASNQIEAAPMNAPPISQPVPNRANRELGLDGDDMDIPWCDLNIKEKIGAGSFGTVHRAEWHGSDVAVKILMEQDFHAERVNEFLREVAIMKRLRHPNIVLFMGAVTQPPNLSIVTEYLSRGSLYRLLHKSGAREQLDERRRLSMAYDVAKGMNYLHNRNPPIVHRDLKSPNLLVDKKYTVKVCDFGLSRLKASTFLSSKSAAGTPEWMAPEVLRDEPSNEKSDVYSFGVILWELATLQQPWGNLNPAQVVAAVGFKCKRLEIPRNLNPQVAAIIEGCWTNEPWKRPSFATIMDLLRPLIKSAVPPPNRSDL
From the text: microscale thermophoresis on rCTR1

[2] = target: T2, rCTR1-K (Arabidopsis thaliana, UniProt Q05609); experiment: microscale thermophoresis; type: binding; details: liposomes of the lipid, 10 nM RED-labelled protein, 50 mM Tris-HCl pH 7.4, 150 mM NaCl, 10 mM MgCl2, 0.05% Tween-20
T2 construct: gene CTR1; tag kept
From the text: microscale thermophoresis on rCTR1-K

[3] = target: T1, rCTR1; experiment: TR-FRET kinase assay (HTRF KinEASE, STK Substrate 2-biotin); type: biochemical; details: liposomes pre-incubated 30 min at 4°C; 100 μM ATP, 1 μM STK Substrate 2-biotin; room temperature; inhibition
[4] = target: T2, rCTR1-K; experiment: as above; type: biochemical; details: liposomes pre-incubated 30 min at 4°C; 100 μM ATP, 1 μM STK Substrate 2-biotin; room temperature; inhibition
[5] = read-out: Dissociation Constants (K d) / 24:1-Cer

- Kd ([1]; liposomes of the lipid, 10 nM RED-labelled protein, 50 mM Tris-HCl pH 7.4, 150 mM NaCl, 10 mM MgCl2, 0.05% Tween-20, highest liposome concentration 50 μM, no binding seen on filters, read-out: Dissociation Constants (K d) / 18:0-Cer): 50.6 ± 5.2 µM
- Kd ([2]; read-out: Dissociation Constants (K d) / 18:0-Cer): 49.3 ± 7 µM
Compound: 18:0-Cer

- Kd ([1]; liposomes of the lipid, 10 nM RED-labelled protein, 50 mM Tris-HCl pH 7.4, 150 mM NaCl, 10 mM MgCl2, 0.05% Tween-20, read-out: Dissociation Constants (K d) / 24:0-Cer): 10.8 ± 1.3 µM
- Kd ([2]; read-out: Dissociation Constants (K d) / 24:0-Cer): 4.3 ± 1.3 µM
Compound: 24:0-Cer

- Kd [1, 5]: 1.6 ± 0.1 µM
- Kd [2, 5]: 1 ± 0.1 µM
Compound: CCCCCCCC/C=C\CCCCCCCCCCCCCC(=O)N[C@@H](CO)[C@H](O)/C=C/CCCCCCCCCCCCC [24:1-Cer]
- relative CTR1 activity at 1 nM [3]: both rCTR1 and rCTR1-K proteins exhibited decreased kinase activities
- relative CTR1 activity at 1 nM [4]: both rCTR1 and rCTR1-K proteins exhibited decreased kinase activities
